Data published in article PMC12817916, “A small-molecule HSP90 inhibitor, NVP-HSP990, alleviates rotavirus infection” (Journal of Virology, 2025).
Read-outs that look alike come from different tables or passages of the source.

What was measured:
HSP90α = conditions: targets the N-terminal of HSP90α; cited from earlier work
RV Wa (G1P[8]) strain = experiment: In vitro assay of RV replication inhibition (PFA); format: cell-based, Rotavirus; conditions: MOI = 1, 24 h p.i., PFA, read-out: IC50
Method: (§1) For analysis of effects of different […] on RV replication in vitro, 10,000 MA104 cells, 30,000 Caco-2 cells, and 80,000 HT-29 cells in 100 µL complete DMEM medium were seeded in 96-well plates and cultured at 37°C and 5% CO2 for 24 h. Then the cells were infected with RV Wa or SA11 strains (MOI = 1 (PFU/cell)) for 1 h. After removing the viruses and washing cells two times with DMEM, 100 µL DMEM containing the indicated concentrations of drugs was added to each well, and the plates were incubated at 37°C and 5% CO2. At 24 h p.i., the infected cells and culture medium were collected, frozen/thawed twice, and subjected to centrifugation at 1,000 × g for 3 min at room temperature. Then, the supernatant was subjected to analysis of viral load by PFA. […] Dose-response data (drug concentrations as x-axis and normalized inhibition percentages as y-axis) were fitted to a dose-response inhibition model ([Inhibitor] vs normalized response – Variable slope). […] Model adequacy was validated using goodness-of-fit metrics (R^2 ≥ 0.95), 95% confidence intervals, and residual distribution analysis.
(§2) Wa/SA11 strains were titrated by PFA, which was carried out as described (3) with some modification. Briefly, confluent monolayers of MA104 cells in 24-well tissue culture plates were infected with 100 µL supernatants containing infectious RV particles which were serially diluted (10^1, 10^2, 10^3, and 10^4) with DMEM containing 1 µg/mL trypsin and penicillin (10,000 U/mL)-streptomycin (5 µg/mL) (DMEM-T) for 1 h at 37°C. Then 400 µL agarose overlay (0.8% agarose in 1×DMEM-T) was added and the plates were incubated at 37℃ and 5% CO2 for 5 days. The cells in each well were fixed by 1 mL 4% paraformaldehyde (Sangon Biotech, China) overnight (> 12 h) at room temperature. Then, the paraformaldehyde and agarose were removed and the monolayers were stained with 0.5 ml of a 1% (v/v) crystal violet (Sangon Biotech, China) diluted in distilled water for 10 min at room temperature. Then, the plates were drained and dried, and the plaques were enumerated. As the EDIM strain is not able to grow in cell culture, it was titrated by qPCR analysis as described (4) with EDIM VP6 gene as the target.

RV SA11 (G3P[2]) strain = experiment: In vitro assay of RV replication inhibition (PFA); format: cell-based, Rotavirus; conditions: MOI = 1, 24 h p.i., PFA, read-out: IC50
Method: as §1, §2

[1] = cited from earlier work
RV EDIM strain = experiment: RV EDIM diarrhea model in suckling mice (treatment after diarrhea onset); format: in vivo, BALB/c suckling mice
Method: BALB/c mice were purchased from Gempharmatech Inc. (Suzhou, China) and housed under SPF conditions (22 ± 1°C, 12 h light/dark cycle). Suckling mice were obtained by mating male and female adult BALB/c mice (12- to 16-week-old). Only the 7-day-old BALB/c suckling mice with body weights ranging from 2.5 g to 4.5 g were selected for RV diarrhea models. For induction of RV diarrhea, 1 × 10^6 PFU of SA11 strain or 10 × DD50 of EDIM strain in 20 µL PBS was orally inoculated using a pipette tip to 7-day-old BALB/c suckling mice regardless of their sexes, as sex has no significant influence on RV diarrhea occurrence. We used a scoring system to evaluate fecal consistency and color as described with some modification ([27]): no stool or brown formed stool (1 point); brown soft stool (2 points); yellow soft stool (3 points); and yellow watery stool (4 points). Mice with scores of ≥2 meant diarrhea occurrence, while mice with scores of 1 meant no diarrhea. At the end of each experiment, all infected or drug-treated suckling mice were humanely euthanized via CO2 asphyxiation.
Seven-day-old BALB/c suckling mice meeting the weight criteria within each litter were randomly assigned to experimental groups. Each litter was allocated to ensure one to three suckling mice per experimental group (variations dependent on the total number of groups). Data from suckling mice assigned to the same group across multiple litters were aggregated to achieve a total sample size of n = 3–6 per experimental group. Then, the suckling mice were orally inoculated with 1 × 10^6 PFU of the SA11 strain or 10 × DD50 of the EDIM strain, or with an equal amount of PBS as mock infection. For SA11 infection, the suckling mice were orally treated once with indicated doses of drugs or with an equal volume of DMSO as control at 2 h p.i. For EDIM infection, the suckling mice were orally treated with 0.2 mg/kg/day NVP-HSP990, 30 mg/kg/day ribavirin, or an equal amount of DMSO as control from 2 days post-infection (d p.i.) to indicated time points. Diarrhea scores and body weight were monitored from day 0 to day 7 post-infection in the SA11 infection model, and from day 0 to day 9 post-diarrhea occurrence (2–11 d p.i.) in the EDIM infection model. Blinding was applied throughout data collection and analysis.
The RV-infected suckling mice were sacrificed by CO2 asphyxiation at the indicated times, and small intestines (including duodenum, jejunum, and ileum) or colon was homogenized in 0.3 mL DMEM, centrifuged at 12,000 × g for 5 min at 4°C, and the supernatant was collected. Virus contents in the supernatant were titrated with PFA as described above. Viral antigens in the supernatant were detected with enzyme-linked immunosorbent assay (ELISA) kits for RV (CUSABIO, China) following the manufacturer’s instructions. For qPCR analysis of RV protein expression, the intestines were longitudinally split and washed in 1 mL DMEM by shaking for 30 s. Then, the tissues were cut into 0.5 cm segments, incubated in Hank’s buffer containing 2.5 mM EDTA-Na2 and 1 mM dithiothreitol (Sangon Biotech, China) at 37°C with rotation at 200 rpm for 30 min, filtered with a 70 µm strainer. Then the epithelial cells were pelleted by centrifugation at 500 × g for 5 min, purified with 20% Percoll (Cytiva, Sweden), and lysed in Trizol for RNA extraction and further qPCR analysis.
The jejunum and ileum of suckling mice were fixed in 4% paraformaldehyde for 24 h, washed with PBS twice, and then subjected to paraffin embedding and slicing at 5 µm thickness. The sections were stained with hematoxylin and eosin (Beyotime, China) and observed with an Olympus BX51 microscope, and the data were processed by CaseViewer 2.4 software. For immunohistochemistry analysis, the fixed tissues were dehydrated in 30% sucrose, embedded in Optimal Cutting Temperature compound, frozen with liquid nitrogen, and cryosliced at 10 µm thickness. […]

In the case of `COc1cccc(-c2cc(F)ccc2[C@H]2Cc3nc(N)nc(C)c3C(=O)N2)n1` [NVP-HSP990], the IC50 (HSP90α) is listed as 0.6 nM, the IC50 (RV Wa (G1P[8]) strain; Wa strain in Caco-2 cells) is listed as 4 ± 1.28 nM and the IC50 (RV Wa (G1P[8]) strain; Wa strain in HT-29 cells) is listed as 4.69 ± 0.9 nM. It also gave an IC50 (RV Wa (G1P[8]) strain; Wa strain in MA104 cells) of 0.96 ± 0.13 nM, an IC50 (RV SA11 (G3P[2]) strain; SA11 strain in Caco-2 cells) of 7.47 ± 4.84 nM and an IC50 (RV SA11 (G3P[2]) strain; SA11 strain in HT-29 cells) of 3.85 ± 1.16 nM. The IC50 (RV SA11 (G3P[2]) strain; SA11 strain in MA104 cells) was 0.84 ± 0.17 nM, the brain penetration [1] was “brain-penetrating” and the oral bioavailability [1] was “orally bioavailable”. The “therapeutic effect on diarrhea compared to ribavirin” value (RV EDIM strain; 0.2 mg/kg/day NVP-HSP990 vs 30 mg/kg/day ribavirin, oral, 5 days) was “superior therapeutic effect”, the “weight gain in EDIM-infected suckling mice” value (RV EDIM strain; 0.2 mg/kg/day oral for 5 days, observed for another 5 days) was “did not adversely affect” and the diarrhea scores (RV EDIM strain; 0.2 mg/kg/day oral for 5 days, observed for another 5 days, compared to untreated group) was “significantly reduced”. The “foamy degeneration and viral infection in small intestinal epithelial cells” value (RV EDIM strain; 0.2 mg/kg/day oral from 2 d p.i., 3 consecutive days, compared to untreated controls) was “marked reduction”, the “RV viral antigens in colonic contents” value (RV EDIM strain; 0.2 mg/kg/day oral, 3 days, ELISA, vs untreated or ribavirin-treated (30 mg/kg/day) groups) was “significantly lower” and the “viral antigen (VP6 and NSP4) expression in intestinal epithelial cells” value (RV EDIM strain; 0.2 mg/kg/day oral, 3 days, qPCR, compared to untreated group) was “significantly reduced”.
